Experimental data: patent publication US9169240B2, “Ketone linked benzothiazole inhibitors of endothelial lipase” (BRISTOL-MYERS SQUIBB COMPANY, priority 2012, dated 2015)

target: Endothelial lipase (EL) (Homo sapiens (Human), UniProt Q9Y5X9); assay: Endothelial lipase (EL) activity assay with fluorescent substrate A10070 in DMPG vesicles; format: biochemical
Protocol: Endothelial lipase activity was measured using a fluorescent substrate, A10070, (Invitrogen, CA) doped into an artificial vesicle containing DMPG (Avanti Polar Lipids) as the excipient. Vesicles were prepared by combining 285 μL of 1 mM DMPG in a 1:1 mixture of MeOH and CHCl3 with 15 μL of 1 mM A10070 in a 1:1 mixture of MeOH and CHCl3. The mixture was dried under nitrogen and resuspended in 150 μL of 50 mM HEPES pH 8.0 buffer containing 100 mM NaCl and 0.2 mM EDTA. The sample was allowed to sit at rt for 15 min and then was sonicated 3×4 mins on ice with a Branson Sonicator using duty cycle 1. This preparation provides vesicles with a mole fraction of 0.05 for the FRET substrate.
The enzymatic assay was measured using white, opaque 96-well half area plates. Each well contained 60 μL of assay buffer (50 mM HEPES pH 8.0, 50 mM NaCl and 1 mM CaCl2) and 2 ul of a DMSO solution containing compound of interest. Conditioned media obtained from HT-1080 cells, which were transformed by RAGE technology (Athersys) to overexpress endogenous EL, was added and the reaction was allowed to incubate for 20 min at 37° C. with gentle agitation. The reaction was started by the addition of 20 μL of a 1:4 dilution of vesicles. The final total reaction volume was 100 μL. The reaction rates were measured on a Gemini plate reader with an excitation wavelength of 488 nm and an emission of 530 nm. Readings were taken every 20 seconds for 10 min with agitation between each reading. The slope of the linear portion of the readout was used to calculate the rate of the reaction.

Chain of Endothelial lipase (EL) (Q9Y5X9 21-500): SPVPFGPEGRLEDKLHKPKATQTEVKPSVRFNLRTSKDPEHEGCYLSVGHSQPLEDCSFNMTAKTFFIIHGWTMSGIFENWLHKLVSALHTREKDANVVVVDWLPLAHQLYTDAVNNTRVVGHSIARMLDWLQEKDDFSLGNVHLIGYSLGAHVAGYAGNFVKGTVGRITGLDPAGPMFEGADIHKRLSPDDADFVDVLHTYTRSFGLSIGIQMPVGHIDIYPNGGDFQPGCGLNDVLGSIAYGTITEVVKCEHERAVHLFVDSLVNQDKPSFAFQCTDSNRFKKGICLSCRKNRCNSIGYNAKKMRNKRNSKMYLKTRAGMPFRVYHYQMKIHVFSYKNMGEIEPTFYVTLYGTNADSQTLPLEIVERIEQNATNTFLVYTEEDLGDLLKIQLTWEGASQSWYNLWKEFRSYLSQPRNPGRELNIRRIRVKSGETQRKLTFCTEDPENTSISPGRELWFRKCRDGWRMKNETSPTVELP

SMILES | IC50 [nM]
COc1nc(-c2nnc(C(=O)c3nc4ccc(-c5ccccc5)cc4s3)o2)c(O)c(=O)[nH]1 [Example 47, 5-Hydroxy-2-methoxy-6-(5-(6-phenylbenzo[d]thiazole-2-carbonyl)-1,3,4-oxadiazol-2-yl)pyrimidin-4(3H)-one] | 19
Cc1ccc(S(=O)(=O)Nc2nnc(C(=O)c3nc4ccc(-c5ccccc5)cc4s3)o2)cc1 [Example 90, 4-Methyl-N-(5-(6-phenylbenzo[d]thiazole-2-carbonyl)-1,3,4-oxadiazol-2-yl)benzenesulfonamide] | 340
O=C(c1nnc(C2CCN(c3ncccn3)CC2)o1)c1nc2ccc(-c3ccccc3)cc2s1 [Example 7, (6-phenylbenzo[d]thiazol-2-yl)(5-(1-(pyrimidin-2-yl)piperidin-4-yl)-1,3,4-oxadiazol-2-yl)methanone] | < 10
O=C(c1nnc(NCCc2ccccc2F)o1)c1nc2ccc(-c3ccc(F)cc3)cc2s1 [Example 63, (5-((2-fluorophenethyl)amino)-1,3,4-oxadiazol-2-yl)(6-(4-fluorophenyl)benzo[d]thiazol-2-yl)methanone] | 290
O=C(c1nnc(NCCc2ccncc2)o1)c1nc2ccc(-c3ccccc3)cc2s1 [Example 73, (6-phenylbenzo[d]thiazol-2-yl)(5-((2-(pyridin-4-yl)ethyl)amino)-1,3,4-oxadiazol-2-yl)methanone] | 180
COc1ccc(CNc2nnc(C(=O)c3nc4ccc(-c5ccccc5)cc4s3)o2)c(OC)c1 [Example 69] | 310
O=C(c1nnc(N(Cc2nnc(C3CC3)o2)[C@H]2CCNC2=O)o1)c1nc2ccc(-c3ccccc3)cc2s1 [Example 85, (S)-3-(((5-Cyclopropyl-1,3,4-oxadiazol-2-yl)methyl)(5-(6-phenylbenzo[d]thiazole-2-carbonyl)-1,3,4-oxadiazol-2-yl)amino)pyrrolidin-2-one] | 35
O=C(c1nnc(N2CCN(c3ccc(C(F)(F)F)cc3)CC2)o1)c1nc2ccc(-c3ccccc3)cc2s1 [Example 88, (6-Phenylbenzo[d]thiazol-2-yl)(5-(4-(4-(trifluoromethyl)phenyl)piperazin-1-yl)-1,3,4-oxadiazol-2-yl)methanone] | 494
O=C(c1nnc(N[C@H]2CCNC2=O)o1)c1nc2ccc(-c3ccc(F)cc3)cc2s1 [Example 54, (S)-3-((5-(6-(4-fluorophenyl)benzo [d]thiazole-2-carbonyl)-1,3,4-oxadiazol-2-yl)amino)pyrrolidin-2-one] | < 10
NS(=O)(=O)CCNc1nnc(C(=O)c2nc3ccc(-c4ccccc4)cc3s2)o1 [Example 72, 2-((5-(6-phenylbenzo[d]thiazole-2-carbonyl)-1,3,4-oxadiazol-2-yl)amino)ethanesulfonamide] | 88
O=C(c1nnc(N2CC[C@@H](c3ccccc3)C2)o1)c1nc2ccc(-c3ccccc3)cc2s1 [Example 79, (S)-(6-phenylbenzo[d]thiazol-2-yl)(5-(3-phenylpyrrolidin-1-yl)-1,3,4-oxadiazol-2-yl)methanone] | 310
NS(=O)(=O)NCCc1nnc(C(=O)c2nc3ccc(-c4ccccc4)cc3s2)o1 [Example 28, N-(2-(5-((6-phenyl-1,3-benzothiazol-2-yl)carbonyl)-1,3,4-oxadiazol-2-yl)ethyl)sulfamide] | 36
CC(C)(C)OC(=O)N1CCC(CCc2nnc(C(=O)c3nc4ccc(-c5ccc(F)cc5)cc4s3)o2)CC1 [Example 15, tert-butyl 4-(2-(5-(6-(4-fluorophenyl)benzo[d]thiazole-2-carbonyl)-1,3,4-oxadiazol-2-yl)ethyl)piperidine-1-carboxylate] | < 10
CN(Cc1nnc(C(=O)c2nc3ccc(-c4ccccc4)cc3s2)o1)S(N)(=O)=O [Example 27, N-methyl-N-((5-((6-phenyl-1,3-benzothiazol-2-yl)carbonyl)-1,3,4-oxadiazol-2-yl)methyl)sulfamide] | 23
NC(=O)[C@@H](CCC(F)(F)F)Nc1nnc(C(=O)c2nc3ccc(-c4ccccc4)cc3s2)o1 [Example 75, (R)-5,5,5-trifluoro-2-((5-(6-phenylbenzo[d]thiazole-2-carbonyl)-1,3,4-oxadiazol-2-yl)amino) pentanamide] | 28
O=C(c1nnc(C2CCN(Cc3ccc(OC(F)(F)F)cc3)CC2)o1)c1nc2ccc(-c3ccccc3)cc2s1 [Example 23, (6-Phenylbenzo[d]thiazol-2-yl)(5-(1-(4-(trifluoromethoxy)benzyl)piperidin-4-yl)-1,3,4-oxadiazol-2-yl)methanone] | < 10
O=C(c1nnc(NCCc2cccnc2)o1)c1nc2ccc(-c3ccccc3)cc2s1 [Example 76, (6-phenylbenzo[d]thiazol-2-yl)(5-((2-(pyridin-3-yl)ethyl)amino)-1,3,4-oxadiazol-2-yl)methanone] | 36
O=C(c1nnc(N[C@H]2CCNC2=O)o1)c1nc2ccc(-c3ccc(OC(F)F)cc3)cc2s1 [Example 82, (S)-3-((5-(6-(4-(difluoromethoxy)phenyl)benzo[d]thiazole-2-carbonyl)-1,3,4-oxadiazol-2-yl)amino)pyrrolidin-2-one] | < 10
O=C(c1nnc(CCc2ncc[nH]2)o1)c1nc2ccc(-c3ccccc3)cc2s1 [Example 8, (5-(2-(1H-imidazol-2-yl)ethyl)-1,3,4-oxadiazol-2-yl)(6-phenylbenzo[d]thiazol-2-yl)methanone] | 11
O=C(c1nnc(N[C@H]2CCN(CC(F)(F)F)C2=O)o1)c1nc2ccc(-c3ccccc3)cc2s1 [Example 91, (S)-3-((5-(6-Phenylbenzo[d]thiazole-2-carbonyl)-1,3,4-oxadiazol-2-yl)amino)-1-(2,2,2-trifluoroethyl)pyrrolidin-2-one] | 490
CC1(Cc2nnc(C(=O)c3nc4ccc(-c5ccccc5)cc4s3)o2)NC(=O)NC1=O (centres unmarked) [Example 33, 5-methyl-5-((5-(6-phenylbenzo[d]thiazole-2-carbonyl)-1,3,4-oxadiazol-2-yl)methyl)-imidazol-idine-2,4-dione] | 21
NS(=O)(=O)Cc1nnc(C(=O)c2nc3c(F)cc(-c4ccccc4)cc3s2)o1 [Example 12, (5-(4-fluoro-6-phenylbenzo[d]thiazole-2-carbonyl)-1,3,4-oxadiazol-2-yl)methanesulfonamide] | < 10
O=C(c1nnc(N2CC[C@H](c3ccccc3)C2)o1)c1nc2ccc(-c3ccccc3)cc2s1 [Example 80, (R)-(6-phenylbenzo[d]thiazol-2-yl)(5-(3-phenylpyrrolidin-1-yl)-1,3,4-oxadiazol-2-yl)methanone] | 450
CC(C)(C)OC(=O)N1CCC(c2nnc(C(=O)c3nc4ccc(-c5ccccc5)cc4s3)o2)CC1 [Example 20, tert-butyl 4-(5-(6-phenylbenzo[d]thiazole-2-carbonyl)-1,3,4-oxadiazol-2-yl)piperidine-1-carboxylate] | < 10
NS(=O)(=O)c1ccc(-c2ccc3nc(C(=O)c4nnc(N[C@H]5CCNC5=O)o4)sc3c2)cc1 [Example 83, (S)-4-(2-(5-((2-oxopyrrolidin-3-yl)amino)-1,3,4-oxadiazole-2-carbonyl)benzo[d]thiazol-6-yl)benzenesulfonamide] | < 10
COCCNc1nnc(C(=O)c2nc3ccc(-c4ccccc4)cc3s2)o1 [Example 52, (5-((2-methoxyethyl)amino)-1,3,4-oxadiazol-2-yl)(6-phenylbenzo[d]thiazol-2-yl)methanone] | 110
